Assay results reported in PubChem BioAssay AID264 (DTP/NCI, 2004).
Values joined by “and” are separate entries in the source; they are usually repeats but may differ in a detail not shown here. Equal values may be shown once. Records with an inconclusive call do not appear.

System: nude mice, LX-1 lung xenograft intrarenal, tumor weight T/C
Test: NCI In Vivo Anticancer Drug Screen. Data for tumor model Human Lung LX-1 Xenograft (intrarenal inoculation) in NU/NU Swiss (nude) mice
Settings: endpoint: mean tumor weight change, higher = larger tumour
Method in brief: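 Activity was scored by measuring tumors in treated animals and in vehicle controls, then reporting the treated result as a fraction of the control result.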

[1] = dose: 300.0 mg/kg/injection, schedule: Q04DX003 (sc), vehicle: saline
[2] = dose: 1200.0 mg/kg/injection, schedule: Q04DX003 (sc), vehicle: suspension in saline

Compound: O=c1[nH]c(=O)n(C2CC(O)C(CO)O2)cc1Br (configuration not stated)
- T/C (dose: 200.0 mg/kg/injection, schedule: Q01DX010 (sc), vehicle: Klucel (hydroxypropylcellulose) (HPC)): 35 % of control
- T/C (dose: 400.0 mg/kg/injection, schedule: Q01DX010 (sc), vehicle: Klucel (hydroxypropylcellulose) (HPC)): 35 % of control
- T/C (dose: 800.0 mg/kg/injection, schedule: Q01DX010 (sc), vehicle: Klucel (hydroxypropylcellulose) (HPC)): 27 % of control

Compound: COc1ccc([I+]c2cccc(Cl)c2)cc1Cl
- T/C (dose: 75.0 mg/kg/injection, schedule: Q04DX003 (sc), vehicle: saline with Tween-80): 93 % of control
- T/C (dose: 150.0 mg/kg/injection, schedule: Q04DX003 (sc), vehicle: saline with Tween-80): 86 % of control
- T/C (dose: 300.0 mg/kg/injection, schedule: Q04DX003 (sc), vehicle: saline with Tween-80): 85 % of control
- T/C (dose: 600.0 mg/kg/injection, schedule: Q04DX003 (sc), vehicle: saline with Tween-80): 74 % of control
- T/C (dose: 1200.0 mg/kg/injection, schedule: Q04DX003 (sc), vehicle: saline with Tween-80): 83 % of control

Compound: C=C1C(C)C2C(Cc3ccccc3)NC(=O)C23C(OC(C)=O)C=CC(C)(O)C(=O)C(C)C/C=C/C3C1O (configuration not stated)
- T/C (dose: 7.5 mg/kg/injection, schedule: Q04DX003 (sc), vehicle: Klucel (hydroxypropylcellulose) (HPC)): 54 % of control
- T/C (dose: 15.0 mg/kg/injection, schedule: Q04DX003 (sc), vehicle: Klucel (hydroxypropylcellulose) (HPC)): 75 % of control

Compound: C=C(C)[C@@H]1CCc2c(O)c(O)c(=O)cc(C)c2C1
- T/C [1]: 106 % of control
- T/C (dose: 600.0 mg/kg/injection, schedule: Q04DX003 (sc), vehicle: saline): 62 % of control
- T/C (dose: 1200.0 mg/kg/injection, schedule: Q04DX003 (sc), vehicle: saline): 90 % of control
- T/C (dose: 2400.0 mg/kg/injection, schedule: Q04DX003 (sc), vehicle: saline): 85 % of control

Compound: C=C(OP(=O)(OC)OC)Sc1ccccc1C
- T/C (dose: 100.0 micrograms/kg/injection, schedule: Q04DX003 (sc), vehicle: Klucel (hydroxypropylcellulose) (HPC)): 68 % of control
- T/C (dose: 200.0 micrograms/kg/injection, schedule: Q04DX003 (sc), vehicle: Klucel (hydroxypropylcellulose) (HPC)): 68 % of control
- T/C (dose: 400.0 micrograms/kg/injection, schedule: Q04DX003 (sc), vehicle: Klucel (hydroxypropylcellulose) (HPC)): 67 % of control
- T/C (dose: 800.0 micrograms/kg/injection, schedule: Q04DX003 (sc), vehicle: Klucel (hydroxypropylcellulose) (HPC)): 79 % of control

Compound: C=C(C(=O)O)C(N)C(=O)O (configuration not stated)
- T/C [2]: 76 % of control

Compound: CCCCCCCCCCCCCCCCP(=O)(OCCOCCCCCC)OCCOCCCCCC
- T/C (dose: 75.0 mg/kg/injection, schedule: Q04DX003 (sc), vehicle: saline): 114 % of control
- T/C (dose: 150.0 mg/kg/injection, schedule: Q04DX003 (sc), vehicle: saline): 91 % of control
- T/C [1]: 92 % of control

Compound: CO[C@H]1C[C@](C)(O)Cc2cc3c(c(O)c21)C(=O)c1c(O)cc2c(c1C3=O)O[C@@H]1O[C@@]2(C)[C@H](O)[C@@H](N(C)C)[C@@H]1O
- T/C (dose: 3.12 mg/kg/injection, schedule: Q01DX010 (sc), vehicle: other): 68 % of control
- T/C (dose: 6.25 mg/kg/injection, schedule: Q01DX010 (sc), vehicle: other): 63 % of control and 70 % of control
- T/C (dose: 12.5 mg/kg/injection, schedule: Q01DX010 (sc), vehicle: other): 23 % of control

Compound: Nc1ccc(C(OC(=O)c2cc3ccccc3c(Cc3c(O)c(C(=O)OC(c4ccc(N)cc4)(c4ccc(N)cc4)c4ccc(N)cc4)cc4ccccc34)c2O)(c2ccc(N)cc2)c2ccc(N)cc2)cc1
- T/C (dose: 36.0 mg/kg/injection, schedule: Q04DX003 (sc), vehicle: saline with Tween-80): 87 % of control
- T/C (dose: 72.0 mg/kg/injection, schedule: Q04DX003 (sc), vehicle: saline with Tween-80): 116 % of control
- T/C (dose: 144.0 mg/kg/injection, schedule: Q04DX003 (sc), vehicle: saline with Tween-80): 67 % of control
- T/C (dose: 288.0 mg/kg/injection, schedule: Q04DX003 (sc), vehicle: saline with Tween-80): 58 % of control

Compound: CC[C@](O)(C(=O)O)c1cc2n(c(=O)c1CO)Cc1cc3ccccc3nc1-2
- T/C (dose: 16.0 mg/kg/injection, schedule: Q04DX003 (sc), vehicle: saline): -5 % of control
- T/C (dose: 31.25 mg/kg/injection, schedule: Q04DX003 (sc), vehicle: saline): 25 % of control
- T/C (dose: 62.5 mg/kg/injection, schedule: Q04DX003 (sc), vehicle: saline): 1 % of control
- T/C (dose: 125.0 mg/kg/injection, schedule: Q04DX003 (sc), vehicle: saline): -48 % of control

Compound: Cc1cc(NS(=O)(=O)c2ccc(N=Nc3cc(N=Nc4ccc(S(=O)(=O)Nc5cc(C)nc(C)n5)cc4)c4c(NC(=O)C(Cl)Cl)cccc4c3OC(=O)C(Cl)Cl)cc2)nc(C)n1 (tested in a mixture with another compound)
- T/C (dose: 600.0 mg/kg/injection, schedule: Q04DX003 (sc), vehicle: suspension in saline): 95 % of control
- T/C [2]: 115 % of control
- T/C (dose: 2400.0 mg/kg/injection, schedule: Q04DX003 (sc), vehicle: suspension in saline): 121 % of control

Compound: O=c1c(O)c(-c2cc(O)c(O)c(O)c2)oc2cc(O)cc(O)c12
- T/C (dose: 6.0 mg/kg/injection, schedule: Q04DX003 (sc), vehicle: saline with Tween-80): 93 % of control
- T/C (dose: 12.0 mg/kg/injection, schedule: Q04DX003 (sc), vehicle: saline with Tween-80): 99 % of control
- T/C (dose: 24.0 mg/kg/injection, schedule: Q04DX003 (sc), vehicle: saline with Tween-80): 92 % of control
- T/C (dose: 48.0 mg/kg/injection, schedule: Q04DX003 (sc), vehicle: saline with Tween-80): 96 % of control
- T/C (dose: 50.0 mg/kg/injection, schedule: Q04DX003 (sc), vehicle: saline with Tween-80): 100 % of control
- T/C (dose: 100.0 mg/kg/injection, schedule: Q04DX003 (sc), vehicle: saline with Tween-80): 83 % of control
- T/C (dose: 200.0 mg/kg/injection, schedule: Q04DX003 (sc), vehicle: saline with Tween-80): 69 % of control
- T/C (dose: 400.0 mg/kg/injection, schedule: Q04DX003 (sc), vehicle: saline with Tween-80): 94 % of control

Compound: CC1CC(C)CC(C)C(O)/C(C#N)=C/C=C/CC(C2CCCC2C(=O)O)OC(=O)CC(O)C(C)C1 (configuration not stated)
- T/C (dose: 6.0 mg/kg/injection, schedule: Q04DX003 (sc), vehicle: Klucel (hydroxypropylcellulose) (HPC)): 117 % of control
- T/C (dose: 12.0 mg/kg/injection, schedule: Q04DX003 (sc), vehicle: Klucel (hydroxypropylcellulose) (HPC)): 58 % of control
- T/C (dose: 24.0 mg/kg/injection, schedule: Q04DX003 (sc), vehicle: Klucel (hydroxypropylcellulose) (HPC)): 48 % of control
